Reference: ChEMBL document CHEMBL3779788, “Facile synthesis of 1,3-thiazolidin-4-ones as antitubercular agents” (Bioorg Med Chem Lett, 2016)
In brackets after ≈: the same amount, converted by molar mass.

Experiments:
[1] = system: Mycobacterium tuberculosis; test: Antitubercular activity against dormant Mycobacterium tuberculosis H37Ra assessed as growth inhibition at 30 ug/mL by XTT reduction menadione assay; type: functional; conditions: read-out: GI
[2] = Cytotoxicity against human A549 cells at 30 ug/mL by MTT assay; type: cell-based; conditions: read-out: INH
[3] = Cytotoxicity against human A549 cells at 10 ug/mL by MTT assay; type: cell-based; conditions: read-out: INH
[4] = system: Mycobacterium bovis BCG str. ATCC 35743; test: Antitubercular activity against dormant Mycobacterium bovis BCG ATCC 35743 assessed as growth inhibition at 30 ug/mL by NR assay; type: functional
[5] = system: Mycobacterium bovis BCG str. ATCC 35743; test: Antitubercular activity against dormant Mycobacterium bovis BCG ATCC 35743 assessed as growth inhibition at 10 ug/mL by NR assay; type: functional
[6] = Cytotoxicity against human HCT116 cells at 10 ug/mL by MTT assay; type: cell-based, HCT-116; conditions: read-out: INH
[7] = Cytotoxicity against human A549 cells at 3 ug/mL by MTT assay; type: cell-based; conditions: read-out: INH
[8] = (§1) Antitubercular activity against dormant Mycobacterium bovis BCG ATCC 35743 by NR assay; type: functional, Mycobacterium bovis BCG str. ATCC 35743
[9] = system: Mycobacterium bovis BCG str. ATCC 35743; test: as §1; type: functional
[10] = system: Mycobacterium tuberculosis; test: Antitubercular activity against dormant Mycobacterium tuberculosis H37Ra assessed as growth inhibition at 10 ug/mL by XTT reduction menadione assay; type: functional; conditions: read-out: GI
[11] = Cytotoxicity against human MCF7 cells at 30 ug/mL by MTT assay; type: cell-based; conditions: read-out: INH
[12] = system: Mycobacterium tuberculosis; test: Antitubercular activity against dormant Mycobacterium tuberculosis H37Ra assessed as growth inhibition at 3 ug/mL by XTT reduction menadione assay; type: functional; conditions: read-out: GI
[13] = Cytotoxicity against human MCF7 cells at 3 ug/mL by MTT assay; type: cell-based; conditions: read-out: INH
[14] = system: Mycobacterium tuberculosis; test: Antitubercular activity against dormant Mycobacterium tuberculosis H37Ra by XTT reduction menadione assay; type: functional, organism-based
[15] = Cytotoxicity against human MCF7 cells at 10 ug/mL by MTT assay; type: cell-based; conditions: read-out: INH
[16] = Cytotoxicity against human HCT116 cells at 30 ug/mL by MTT assay; type: cell-based, HCT-116; conditions: read-out: INH
[17] = system: Mycobacterium bovis BCG str. ATCC 35743; test: Antitubercular activity against dormant Mycobacterium bovis BCG ATCC 35743 assessed as growth inhibition at 3 ug/mL by NR assay; type: functional
[18] = Cytotoxicity against human HCT116 cells at 3 ug/mL by MTT assay; type: cell-based, HCT-116; conditions: read-out: INH
Staphylococcus aureus = test: Antibacterial activity against Staphylococcus aureus after 18 hrs by broth dilution method; type: functional, organism-based
Bacillus subtilis = test: Antibacterial activity against Bacillus subtilis after 18 hrs by broth dilution method; type: functional, organism-based
Escherichia coli = test: Antibacterial activity against Escherichia coli after 18 hrs by broth dilution method; type: functional, organism-based
Pseudomonas = test: Antibacterial activity against Pseudomonas after 18 hrs by broth dilution method; type: functional, organism-based

| Structure (SMILES) | inhibition of growth at 30 µg/mL [1] [%] | cytotoxicity at 30 ug/mL [2] [%] | cytotoxicity at 10 ug/mL [3] [%] | growth inhibition (GI) [4] [%] | growth inhibition (GI) [5] [%] | cytotoxicity at 10 ug/mL [6] [%] | cytotoxicity at 3 ug/mL [7] [%] | IC50 [8] [µg/mL] | IC90 [9] [µg/mL] | inhibition of growth at 10 µg/mL [10] [%] | cytotoxicity at 30 ug/mL [11] [%] | inhibition of growth at 3 µg/mL [12] [%] | cytotoxicity at 3 ug/mL [13] [%] | IC50 [14] [µg/mL] | IC90 [14] [µg/mL] | cytotoxicity at 10 ug/mL [15] [%] | cytotoxicity at 30 ug/mL [16] [%] | growth inhibition (GI) [17] [%] | cytotoxicity at 3 ug/mL [18] [%] | also measured |
| --- | --- | --- | --- | --- | --- | --- | --- | --- | --- | --- | --- | --- | --- | --- | --- | --- | --- | --- | --- | --- |
| O=C1CSC(c2ccccc2)N1c1ccc(Br)cc1 (stereo unspecified) | -0.7 | 0 | 0 | -35.7 | -2.7 | 8.2 | 0 | > 30 | > 30 | -27.5 | 23.8 | -6.9 | -2.6 | > 30 | > 30 | 9.4 | 22 | -14 | -7.3 | – |
| Cc1ccc(C2SCC(=O)N2c2ccc(C)cc2)cc1 (stereo unspecified) | -27.4 | -13.4 | 0 | -1.9 | -1.2 | 16.7 | 8.6 | > 30 | > 30 | -26.4 | 19.6 | -18.5 | -9.2 | > 30 | > 30 | 16.4 | 45 | -12.5 | 9.7 | – |
| O=C1CSC(c2ccc(O)cc2)N1c1ccc(Cl)cc1 (stereo unspecified) | 16.3 | 0 | 0 | -2.2 | -15.5 | 10.4 | 0 | > 30 | > 30 | 10.3 | 43.4 | 29.8 | 24.9 | > 30 | > 30 | 32.2 | 20.1 | 6 | 4.3 | – |
| CC1(C)S[C@@H]2[C@H](NC(=O)[C@H](N)c3ccccc3)C(=O)N2[C@H]1C(=O)O [AMPICILLIN] | – | – | – | – | – | – | – | – | – | – | – | – | – | – | – | – | – | – | – | IC50 (Staphylococcus aureus): 1 µg/mL (≈ 2.86 µM); MIC (Staphylococcus aureus): 0.12 µg/mL (≈ 0.343 µM); IC50 (Bacillus subtilis): 10.3 µg/mL (≈ 29.5 µM); MIC (Bacillus subtilis): 5.89 µg/mL (≈ 16.9 µM); IC50 (Escherichia coli): 1.46 µg/mL (≈ 4.18 µM); MIC (Escherichia coli): 0.41 µg/mL (≈ 1.17 µM); IC50 (Pseudomonas): 4.36 µg/mL (≈ 12.5 µM); MIC (Pseudomonas): 2.83 µg/mL (≈ 8.1 µM) |
| Cc1ccc(N2C(=O)CSC2c2ccc(Cl)cc2)cc1 (stereo unspecified) | 5.2 | 0 | 0 | 5.3 | 29.2 | 7.2 | 1.3 | > 30 | > 30 | 38.1 | 11.3 | 34 | -0.9 | > 30 | > 30 | 9.6 | 28.8 | -6.6 | -8.6 | – |
| O=C1CSC(c2ccc(Cl)cc2)N1c1ccc(F)cc1 (stereo unspecified) | -45.6 | 0 | 0 | -1 | -9.9 | 0.2 | 0 | > 30 | > 30 | -3.2 | 26.1 | 8.8 | 12.4 | > 30 | > 30 | 11.5 | 34.5 | -2.1 | -6.2 | – |
| CO[C@H]1/C=C/O[C@@]2(C)Oc3c(C)c(O)c4c(O)c(c(/C=N/N5CCN(C)CC5)c(O)c4c3C2=O)NC(=O)/C(C)=C\C=C\[C@H](C)[C@H](O)[C@@H](C)[C@@H](O)[C@@H](C)[C@H](OC(C)=O)[C@@H]1C [RIFAMPIN] | – | – | – | – | – | – | – | 0.0016 (≈ 0.00194 µM) | 0.041 (≈ 0.0498 µM) | – | – | – | – | – | 0.043 (≈ 0.0523 µM) | – | – | – | – | – |
